The subject of series [1] is L. donovani promastigotes. As to the kind of experiment: Antileishmanial activity against L. donovani promastigotes (MTT assay). It is filed as cell-based. To be noted: Leishmania donovani; promastigotes, 72 h, MTT; read-out: EC50 L. donovani Pro. (In general: Tetrazolium assays rely on reduction of a dye to a coloured formazan, in cell work by metabolically active cells.)

The nature of series [2]: Cytotoxicity evaluation on HepG2 cell line (MTT). It is filed as cell-based. The following applies: human, HepG2 cells.
Series [3] is described as follows: Cytotoxicity on THP-1 cell line (MTT). It is filed as cell-based. To be noted: human, THP-1 cells, THP1 cell line. In outline: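 THP-1 cells exposed to compounds for 72 h at 37 °C, then MTT (0.5 mg/mL) for 2 h, absorbance at 570 nm. Viability expressed relative to DMSO-treated cells; CC50 is the mean of three independent experiments.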
A short description of series [4]: Thermodynamic solubility at pH 7.4 (miniaturized shake-flask). In kind it is physicochemical. To be noted: pH 7.4, PBS, 23 °C; for solubility thermodynamic at 24 h: phosphate buffer (PBS), aqueous buffer, kinetic from dmso stock. The protocol: Thermodynamic solubility at pH 7.4 of compounds was determined according to a miniaturized shake-flask method (Organisation for Economic Cooperation and Development guideline n°105). Phosphate Buffer solutions (pH 7.4, […], ionic strength […]) were prepared from Na2HPO4, KH2PO4 and KCl (Sigma Aldrich, Saint Quentin Fallavier, France); 10 µL of 20 mM stock solution were added to 5 mL glass tubes containing […] buffer (n = 3). The tubes were briefly sonicated and shacked by inversion during 24 h at 23 °C. Then, the tube contents were placed in a microtube which was centrifuged at 12,225× g for 10 min; 100 µL supernatant were mixed with 100 µL acetonitrile in a Greiner UV microplate. Standard solutions were prepared extemporaneously, diluting 20 mM DMSO stock solutions at […]; 5 µL of each working solution were diluted with 995 µL buffer and 100 µL were then mixed in microplates with 100 µL acetonitrile so as to ensure that the final proportions of each solvent in standard solutions and samples remained unchanged. Solubility at pH 7.4 was determined with an Infinite M200Pro (Tecan, Lyon, France) microplate reader in spectrophotometric mode (230 to 450 nm) from the specific λmax of each compound. The calibration curve was obtained from the […] standard solutions of tested compounds at 0, 25, 50, and 100 µM in a 50:50 (vol/vol) mixture of buffer with acetonitrinile/DMSO (99:1; vol/vol). Calibration curves were linear with R^2 > 0.99.

The nature of series [5]: Mouse microsomal stability. To be noted: female, CD-1, pH 7.4; mouse liver microsomes; read-out: Mouse Microsomal Stability T1/2. It is filed as in vitro ADME. The protocol:
The tested product and propranolol, used as reference, were incubated in duplicate (reaction volume of 0.5 mL) with female mouse microsomes (CD-1, 20 mg/mL, BD Gentest™) at 37 °C in a 50 mM phosphate buffer, pH 7.4, in the presence of MgCl2 (5 mM), NADP (1 mM), glucose-6-phosphate dehydrogenase (0.4 U/mL) and glucose-6-phosphate (5 mM). […] After centrifugation at 10,000× g, 10 min, 4 °C, the supernatants were maintained at 4 °C for immediate analysis or placed at -80 °C for later analysis. Controls (t0 and tfinal) in triplicate were prepared by incubation of the internal standard with microsomes denatured by acetonitrile. […] The mobile phases were (A) ammonium acetate 10 mM and (B) acetonitrile with 0.1% formic acid. The injection volume was 1 µL and the flow rate 600 µL/min. […] Each compound was quantified by converting the average of the ratios of the analyte/internal standard surfaces to the percentage of product consumed. The ratio of the control at t0 corresponded to 0% of product consumed. The half-life (T1/2) of each compound in the presence of microsomes was calculated according to the equation: t1/2=ln(2)/k , where k is the first-order degradation constant (the slope of the logarithm of compound concentration versus incubation time). The intrinsic clearance in vitro (Clint expressed in μL/min/mg) is calculated according to the equation: Clint=dose/AUC∞/[microsomes] where “dose” is the initial concentration of product in the sample, AUC∞ is the area under the concentration-time curve extrapolated to infinity and [microsomes] is the microsome concentration expressed in mg/µL.
For orientation: Liver microsomes are vesicles of endoplasmic reticulum, rich in cytochrome P450 enzymes.

Converted amounts (≈) assume the structure as drawn.

Regarding `O=[N+]([O-])c1c(CS(=O)(=O)CCC(F)(F)F)nc2c(-c3ccncc3)cc(Cl)cn12` [Compound 7, 6-Chloro-3-Nitro-8-(Pyridin-4-yl)-2-[(3,3,3-Trifluoropropylsulfonyl)methyl]imidazo[1,2-a]pyridine], in series [1], the EC50 was 3.1 ± 0.6 µM. Further, the CC50 at 72 h in series [2] and in series [3] was above 100 µM each time. In series [4], this molecule registered a thermodynamic solubility at 24 h of 31.1 ± 3.7 µM (≈ 14 µg/mL). Moreover, the half-life in series [5] was above 40 min.
On to `O=[N+]([O-])c1c(CS(=O)(=O)c2ccccc2)nc2c(Br)cc(Cl)cn12` [Hit A, 8-Bromo-6-chloro-3-nitro-2-(phenylsulfonylmethyl)imidazo[1,2-a]pyridine, reference compound], for which, in series [1], the EC50 was 5.3 ± 1.1 µM. Besides, the CC50 at 72 h in series [2] is above 15.6 µM; in series [3], above 100 µM. In series [4], the solubility (thermodynamic) at 24 h was found to be 6.9 ± 1.5 µM (≈ 2.97 µg/mL). For the same molecule, the half-life in series [5] was determined as 11 min.
With `O=[N+]([O-])c1c(CS(=O)(=O)c2ccccc2)nc2c(Sc3ccc(Cl)cc3)cc(Cl)cn12` [Hit B, reference compound], in series [1], the EC50 worked out at 1 ± 0.3 µM. Moreover, the figures for the CC50 at 72 h in series [2] and in series [3] were above 100 µM and above 62.5 µM, respectively. For the same molecule, in series [4] (24 h), the “Thermodynamic Solubility at pH 7.4 in PBS” value is 1.4 ± 0.5 µM. Also, the half-life in series [5] was 3 min.

One may read the EC50 as the concentration that produces a half-maximal response. The term CC50 denotes the concentration that lowers cell viability or growth by half. The thermodynamic solubility is the concentration in solution at equilibrium with solid.

These data come from article PMC9415646, “Improving Aqueous Solubility and In Vitro Pharmacokinetic Properties of the 3-Nitroimidazo[1,2-a]pyridine Antileishmanial Pharmacophore” (Pharmaceuticals, 2022).
